Data as given in patent US9763974B2, “Galacto-rhamnogalacturonate compositions for the treatment of diseases associated with elevated inducible nitric oxide synthase” (Galectin Therapeutics, Inc., priority 2012, dated 2017).

Test system: inducible nitric oxide synthase (iNOS) in liver tissue
Experiment: iNOS immunostaining and digital morphometry in liver tissue, STAM mouse model of steatohepatitis
Format: in vivo
Settings: STAM mice
Description: The experimental model used in this example is the mouse in which diabetes was induced and a high fat diet was administered, a model that has been called STAM mice. Diabetes is induced immediately following birth with a single injection of streptozotocin and then four weeks later the mice are started on a high fat diet. This is a proven chronic inflammatory model in which the mice consistently develop steatohepatitis with hepatocyte fat accumulation, evidence of hepatocyte toxicity, portal and lobular inflammatory infiltrates, peri-sinusoidal fibrosis, advanced fibrosis with nodule formation, cirrhosis, and ultimately hepatocellular carcinoma in a certain percentage of animals.
GR-MD-02, produced as described in Example 1, was given in a dose of 60 mg/kg twice weekly intravenously for four (4) weeks starting at week 9 after initiation of the model through week 12.
GR-MD-02, produced as described in Example 1, was also given in a dose of 120 mg/kg, 60 mg/kg, 30 mg/kg, 10 mg/kg once weekly intravenously for six weeks at the each of the starting at week six of the model and ending at week 12.

With galacto-rhamnogalacturonate [GR-MD-02] the “quantification of iNOS immunoreactivity (FIG. 3)” value (shortened to “quantification … (FIG. 3)”) (10 mg/kg once weekly intravenously for six weeks) was “statistically significant reductions”, the “quantification … (FIG. 3)” value (30 mg/kg once weekly intravenously for six weeks) was “statistically significant reductions” and the “quantification of iNOS immunoreactivity (FIG. 1B)” value (60 mg/kg twice weekly intravenously for 4 weeks, week 9 through week 12) was “statistically significant reduction”. For the same substance, the “amount of iNOS detected in liver tissue (FIG. 1A)” value (60 mg/kg twice weekly intravenously for 4 weeks, week 9 through week 12, vs vehicle-treated control) was “markedly reduced”, the “amount of iNOS detected in liver tissue (FIG. 2)” value (10, 30, 60 or 120 mg/kg once weekly intravenously for six weeks, week 6 to week 12, vs vehicle-treated control) was “reduced” and the “quantification … (FIG. 3)” value (various once weekly intravenous doses (10-120 mg/kg) for six weeks) was “reduction of iNOS immunoreactivity”.
